Data as given in patent US20260207623A1, “USE OF ESTETROL IN HEPATICALLY IMPAIRED PATIENTS” (ESTETRA SRL, priority 2022, published 2026).
Entries after “also recorded” stand apart in the source; their conditions may differ.

What was measured:
Type in all cases: in vivo, human
[1] = tested on: post-menopausal women; test: Example 2 dose-finding study: Hot Flush Weekly Weighted Score
Procedure: Further, the terms “Hot Flush Weekly Weighted Score”, as used herein, corresponds to a score taking into account frequency and severity which is calculated by using the severity score (as calculated above): [(1×No. of mild VMS)+(2×No. of moderate VMS)+(3×No. of severe VMS)] during a 7 day period.
All treatments (Estetrol, hereinafter E4 as monohydrate, [2.5 mg, 5 mg, 10 mg, 15 mg] capsule) were administered once daily (QD) per os for at least 12 consecutive weeks until the last biological assessments (Day 91 maximum) had been performed.
A further analysis of the results was thus prepared, where data from these two doses were grouped with the placebo dose and compared to the 10 mg and 15 mg estetrol monohydrate doses.

[2] = tested on: Haemoglobin A1C; test: Example 3: haemoglobin A1C, change from baseline to week 12
[3] = tested on: post-menopausal women; test: Example 3: menopause-specific Quality of Life (MENQOL) questionnaire; details: compared to placebo treatment

## C[C@]12CC[C@@H]3c4ccc(O)cc4CC[C@H]3[C@@H]1[C@@H](O)[C@@H](O)[C@@H]2O [E4 monohydrate, estetrol monohydrate]
[1]; 2.5 mg daily, week 4
  Hot Flush Weekly Weighted Score, relative change (% from baseline), Mean: −47%
[1]; 2.5 mg daily, week 5
  Hot Flush Weekly Weighted Score, relative change (% from baseline), Mean: −48%
[1]; 2.5 mg daily, week 6
  Hot Flush Weekly Weighted Score, relative change (% from baseline), Mean: −51%
[1]; 2.5 mg daily, week 7
  Hot Flush Weekly Weighted Score, relative change (% from baseline), Mean: −53%
[1]; 2.5 mg daily, week 8
  Hot Flush Weekly Weighted Score, relative change (% from baseline), Mean: −55%
[1]; 2.5 mg daily, week 9
  Hot Flush Weekly Weighted Score, relative change (% from baseline), Mean: −57%
[1]; 2.5 mg daily, week 10
  Hot Flush Weekly Weighted Score, relative change (% from baseline), Mean: −57%
[1]; 2.5 mg daily, week 11
  Hot Flush Weekly Weighted Score, relative change (% from baseline), Mean: −56%
[1]; 2.5 mg daily, week 12
  Hot Flush Weekly Weighted Score, relative change (% from baseline), Mean: −57%
[1]; 5 mg daily, week 0
  Hot Flush Weekly Weighted Score, relative change (% from baseline), Mean: 0%
[1]; 5 mg daily, week 1
  Hot Flush Weekly Weighted Score, relative change (% from baseline), Mean: −22%
[1]; 5 mg daily, week 2
  Hot Flush Weekly Weighted Score, relative change (% from baseline), Mean: −32%
[1]; 5 mg daily, week 3
  Hot Flush Weekly Weighted Score, relative change (% from baseline), Mean: −37%
[1]; 5 mg daily, week 4
  Hot Flush Weekly Weighted Score, relative change (% from baseline), Mean: −43%
[1]; 5 mg daily, week 5
  Hot Flush Weekly Weighted Score, relative change (% from baseline), Mean: −46%
[1]; 5 mg daily, week 6
  Hot Flush Weekly Weighted Score, relative change (% from baseline), Mean: −56%
[1]; 5 mg daily, week 7
  Hot Flush Weekly Weighted Score, relative change (% from baseline), Mean: −56%
[1]; 5 mg daily, week 8
  Hot Flush Weekly Weighted Score, relative change (% from baseline), Mean: −56%
[1]; 5 mg daily, week 9
  Hot Flush Weekly Weighted Score, relative change (% from baseline), Mean: −58%
[1]; 5 mg daily, week 10
  Hot Flush Weekly Weighted Score, relative change (% from baseline), Mean: −59%
[1]; 5 mg daily, week 11
  Hot Flush Weekly Weighted Score, relative change (% from baseline), Mean: −61%
[1]; 5 mg daily, week 12
  Hot Flush Weekly Weighted Score, relative change (% from baseline), Mean: −60%
[1]; 10 mg daily, week 0
  Hot Flush Weekly Weighted Score, relative change (% from baseline), Mean: 0%
[1]; 10 mg daily, week 0, section B analysis
  Hot Flush Weekly Weighted Score, relative change (% from baseline), Mean: 0%
[1]; 10 mg daily, week 1
  Hot Flush Weekly Weighted Score, relative change (% from baseline), Mean: −20%
[1]; 10 mg daily, week 1, section B analysis
  Hot Flush Weekly Weighted Score, relative change (% from baseline), Mean: −20%
[1]; 10 mg daily, week 2
  Hot Flush Weekly Weighted Score, relative change (% from baseline), Mean: −35%
[1]; 10 mg daily, week 3
  Hot Flush Weekly Weighted Score, relative change (% from baseline), Mean: −47%
[1]; 10 mg daily, week 4
  Hot Flush Weekly Weighted Score, relative change (% from baseline), Mean: −54%
[1]; 10 mg daily, week 5
  Hot Flush Weekly Weighted Score, relative change (% from baseline), Mean: −58%
[1]; 10 mg daily, week 7
  Hot Flush Weekly Weighted Score, relative change (% from baseline), Mean: −64%
[1]; 10 mg daily, week 7, section B analysis
  Hot Flush Weekly Weighted Score, relative change (% from baseline), Mean: −64%
[1]; 10 mg daily, week 8, section B analysis
  Hot Flush Weekly Weighted Score, relative change (% from baseline), Mean: −66%
[1]; 10 mg daily, week 9
  Hot Flush Weekly Weighted Score, relative change (% from baseline), Mean: −67%
[1]; 10 mg daily, week 9, section B analysis
  Hot Flush Weekly Weighted Score, relative change (% from baseline), Mean: −66%
[1]; 10 mg daily, week 10, section B analysis
  Hot Flush Weekly Weighted Score, relative change (% from baseline), Mean: −68%
[1]; 10 mg daily, week 11
  Hot Flush Weekly Weighted Score, relative change (% from baseline), Mean: −69%
[1]; 10 mg daily, week 11, section B analysis
  Hot Flush Weekly Weighted Score, relative change (% from baseline), Mean: −68%
[1]; 10 mg daily, week 12
  Hot Flush Weekly Weighted Score, relative change (% from baseline), Mean: −70%
[1]; 10 mg daily, week 12, section B analysis
  Hot Flush Weekly Weighted Score, relative change (% from baseline), Mean: −69%
[1]; 15 mg daily, week 0
  Hot Flush Weekly Weighted Score, relative change (% from baseline), Mean: 0%
[1]; 15 mg daily, week 0, section B analysis
  Hot Flush Weekly Weighted Score, relative change (% from baseline), Mean: 0%
[1]; 15 mg daily, week 1
  Hot Flush Weekly Weighted Score, relative change (% from baseline), Mean: −19%
[1]; 15 mg daily, week 1, section B analysis
  Hot Flush Weekly Weighted Score, relative change (% from baseline), Mean: −22%
[1]; 15 mg daily, week 2
  Hot Flush Weekly Weighted Score, relative change (% from baseline), Mean: −43%
[1]; 15 mg daily, week 3, section B analysis
  Hot Flush Weekly Weighted Score, relative change (% from baseline), Mean: −56%
[1]; 15 mg daily, week 4, section B analysis
  Hot Flush Weekly Weighted Score, relative change (% from baseline), Mean: −66%
[1]; 15 mg daily, week 5, section B analysis
  Hot Flush Weekly Weighted Score, relative change (% from baseline), Mean: −70%
[1]; 15 mg daily, week 6
  Hot Flush Weekly Weighted Score, relative change (% from baseline), Mean: −74%
[1]; 15 mg daily, week 6, section B analysis
  Hot Flush Weekly Weighted Score, relative change (% from baseline), Mean: −72%
[1]; 15 mg daily, week 8
  Hot Flush Weekly Weighted Score, relative change (% from baseline), Mean: −78%
[1]; 15 mg daily, week 8, section B analysis
  Hot Flush Weekly Weighted Score, relative change (% from baseline), Mean: −76%
[1]; 15 mg daily, week 9
  Hot Flush Weekly Weighted Score, relative change (% from baseline), Mean: −80%
[1]; 15 mg daily, week 9, section B analysis
  Hot Flush Weekly Weighted Score, relative change (% from baseline), Mean: −78%
[1]; 15 mg daily, week 10
  Hot Flush Weekly Weighted Score, relative change (% from baseline), Mean: −79%
[1]; 15 mg daily, week 11
  Hot Flush Weekly Weighted Score, relative change (% from baseline), Mean: −80%
[1]; 15 mg daily, week 11, section B analysis
  Hot Flush Weekly Weighted Score, relative change (% from baseline), Mean: −79%
[1]; 15 mg daily, week 12
  Hot Flush Weekly Weighted Score, relative change (% from baseline), Mean: −82%
[1]; 15 mg daily, week 12, section B analysis
  Hot Flush Weekly Weighted Score, relative change (% from baseline), Mean: −81%
[2]; 15 mg and 20 mg, after 12 weeks, monohydrate
  haemoglobin A1C levels: decreased; also recorded: reduced
[2]; 15 mg, Baseline
  Haemoglobin A1C, mean: 5.625
[2]; 15 mg, Week 12
  Haemoglobin A1C, mean: 5.504
[2]; 20 mg, Baseline
  Haemoglobin A1C, mean: 5.605
[2]; 20 mg, Week 12
  Haemoglobin A1C, mean: 5.458
[3]
  total MENQOL scores: significantly improved
